Patent publication US20180220650A1, “PLANT GROWTH REGULATOR COMPOUNDS” (Syngenta Participations AG, priority 2015, published 2018)
Where two headings read alike, the source gives them in different places.

Experiments:
[1] = Soil stability assay (Stein clay loam soil); assay type: physicochemical; settings: for Soil Stability (t1/2, hours): Stein soil:sand 1:1, 0.3 μg per gram of soil, dark, 20° C.
Excerpt: It is highly desirable that agrochemicals applied to soil in order to deliver a beneficial biological effect can exist in the soil for a prolonged period of time with minimal degradation. However, a biologically active agrochemical compound may undergo chemical transformation in soil, leading to decreased levels of activity and a decrease in a desired biological effect. Simple laboratory degradation studies can be used to evaluate the disappearance due to biotic and abiotic processes of a compound in soil. The time taken for a compound to degrade in soil allows the estimation of their half-life (t1/2), which corresponds to the time in which 50% of the compound under evaluation is degraded in soil. […] Stock standard solutions were prepared by dissolving 1 mg of each test compound (ie, compounds (Ib-1, Ib-19 and AB01) in acetonitrile. The stock standard solutions were stored at 6° C. Working standard solutions were then obtained by a series of dilutions of the stock standard solutions for an external calibration. A treatment solution of 100 μg/mL concentration for each test compound was prepared in acetonitrile:water (6:4)(v:v). Soil samples used for this soil stability assay were collected at the Syngenta Research Centre location in Stein (Switzerland). The soil was classified as clay loam soil. Certain physical properties of the soil are described in Table 4. 2 mm sieved Stein soil was mixed with sand at ratio 1:1 prior to starting the laboratory soil degradation experiment. 10 g of the sand-soil mix (air-dried basis) was weighed into 50 ml Corning® polypropylene centrifuge tubes and soil moisture was adjusted at 45% of the field capacity. Chemical application was performed by applying 30 μl of a 100 μg/mL solution of each test compound to 10 g soil vessel corresponding to a final concentration of 0.3 μg test compound per gram of soil. Three replicates were considered for each test compound. Treated tubes were incubated in the dark at 20° C.±0.5 with 85% relative humidity. For the estimation of half-life, different sampling times of 0, 4, 8, 24, 72, 168 and 336 hours were considered. […] The half-lives were calculated by an exponential regression analysis (single first order kinetic model) plotting the percentage of recovered compound in soil against the time. […] After centrifugation at 3500 rpm for 5 minutes, an aliquot of the supernatant was collected and analyzed via UPLC-MS (Waters Acquity UPLC-MS PDA-Detection: 254 nm- and SQD-Zspray ESI, APCI, ESCi®-; Waters Acquity UPLC Column HSS T3 2.1×30 mm-1.8 μm; Gradient mobile phase with H2O:MeOH (9:1, v:v)+0.1% HCOOH (solvent A) and MeCN+0.1% HCOOH (solvent B); 30% to 100% of solvent B in 1 min, then 100% of solvent B for 0.45 min and then down to 30% solvent B at 1.5 min.; flow rate 0.75 mL·min−1).

NK Falkone corn seeds = test: Corn seed germination under cold stress; assay type: in vivo; settings: 15° C.
Procedure: The effect of compounds of Formula (I) on the germination of NK Falkone corn seeds under cold stress was evaluated as follows.
NK Falkone corn seeds were sorted by size using 2 sieves, one excluding very big seeds and the other with round holes of 8 to 9 mm diameter. The seeds retained by the latter sieve were used for the germination test.
The corn seeds were placed in 24 well plates (each plate was considered as one experimental unit or replicate). Germination was initiated by the addition of 250 μl of distilled water containing 0.5% DMSO per well as a mean for compound solubilization. 8 replicates (ie, 8 plates) were used for each treatment characterization. Plates were sealed using seal foil (Polyolefin Art. Nr. 900320) from HJ-BIOANALYTIK. All plates were placed horizontally on trolleys in a climatic chamber at 15° C. or 23° C. in complete darkness. The experiment was laid out in a completely randomized design in climatic chamber with 75% Relative Humidity. Foils were pierced, one hole per well using a syringe after 72 hours for experiments performed at 15° C. and after 24 hours for experiments performed at 23° C.
Germination was followed over time by taking photographs at different time points. Image analysis was performed automatically with a macro which was developed using the Image J software. A dynamic analysis of germination was carried out by fitting a logistic curve. Three parameters were calculated from the logistic curve: the T50; the slope and the plateau. All three parameters have a high agronomical relevance and are key requirements to ensure a good early crop-establishment. The T50, slope and plateau for a selection of compounds are outlined in Table 2 below. All the values are expressed as percentages compared to an untreated control. All the three parameters are calculated considering 8 replicates and the kinetic parameters are separately determined for each germination curve. Data in bold indicate germination enhancing statistically significant differences between treated seeds and untreated control (p<0.05). • T50 corresponds to the time needed for half of the seed population to germinate. Higher negative %-values indicate faster germination. • Slope indicates how synchronous the germination of the seed population is. Positive values indicate steeper curve. The steeper the curve, the better and more uniform the germination is. • Plateau provides information about the final germination rate and it is expressed in percentage.
Positive values indicate a larger number of seeds germinated in a given period.

[2] = Hydrolytic stability assay; assay type: physicochemical; settings: for half-life: aqueous buffer with acetonitrile co-solvent, 40° C., read-out: Hydrolytic Stability (t1/2, hours) (converted); for loss of test compound (definitive half-life could not be determined): pH7
Procedure: The objective of the hydrolytic stability assay was to determine the chemical stability of the individual test compounds in a strictly controlled and reproducible environment allowing a comparison of their in-vitro stability under aqueous conditions at pH7 and 9. Due to low solubility of these analogues, a percentage of acentonitrile is added to the system to aid solubility (nominally 10-50%). Prior to conducting the individual assays, 1000 ppm stock solutions of all four test compounds were prepared in methanol. The reagents used in the assays were prepared as follows: 20 mM buffer solution: A stock of 20 mM mixed acetate, borate and phosphate buffer was prepared and the pH adjusted to 7 or 9 as required. Test solutions were prepared in LC vials for each test compound in the following manner: Mobile Phase Control: Mobile phase (1 ml)+compound (0.5-40 μl); Hydrolytic Stability: Buffer (1 ml)+compound (0.5-40 μl). The mobile phase and buffer were dispensed into separate glass LC vials, placed into a thermostatted autosampler set at 40° C., and allowed to equilibrate for 30 minutes prior to starting the individual assays. Reactions were initiated by addition of compound and monitored through a series of repeat injections made directly from the vial into an HPLC system at regular time intervals. Initial and subsequent measurements of peak area attributable to the test compound were used to fit exponential half-lives and calculate first-order rate constants. […] Consequently, the percent remaining was recorded at the last assessment time.

Soil Stability (t1/2, hours) [1] [h] | half-life ([2]; pH 7 + 25% MeCN) [h] | half-life ([2]; pH 9 + 25% MeCN) [h] | loss of test compound (definitive half-life could not be determined) [2] | SMILES | Plateau (% vs control) (NK Falkone corn seeds; rate 0.04 μM) | Slope (% vs control) (NK Falkone corn seeds; rate 0.04 μM) | T50 (% vs control) (NK Falkone corn seeds; rate 0.04 μM) | Plateau (% vs control) (NK Falkone corn seeds; rate 0.2 μM) | Slope (% vs control) (NK Falkone corn seeds; rate 0.2 μM) | T50 (% vs control) (NK Falkone corn seeds; rate 0.2 μM) | Plateau (% vs control) (NK Falkone corn seeds; rate 1 μM) | Slope (% vs control) (NK Falkone corn seeds; rate 1 μM) | T50 (% vs control) (NK Falkone corn seeds; rate 1 μM) | Plateau (% vs control) (NK Falkone corn seeds; rate 5 μM) | Slope (% vs control) (NK Falkone corn seeds; rate 5 μM) | T50 (% vs control) (NK Falkone corn seeds; rate 5 μM) | also measured
38 | > 17.6 | 3 | insufficient loss was observed | CC1=CC(O/C=C2/C(=O)O[C@]3(C)CC[C@H]4C(C)(C)CCC[C@]4(C)[C@@H]23)OC1=O (stereo partly shown) [AB01] | −2.20 | 6.50 | −1.80 | −2.20 | 10.00 | 0.50 | 3.00 | 27.50 | −2.30 | 1.30 | 16.50 | −1.90 | –
– | – | – | – | CC1=C[C@H](O/C=C2/C(=O)O[C@@H]3c4ccccc4C[C@H]23)OC1=O [GR-24] | – | – | – | – | – | – | – | – | – | – | – | – | Plateau (% vs control) (NK Falkone corn seeds; rate 0.08 μM, final germination rate): 2.10 % vs control; Slope (% vs control) (NK Falkone corn seeds; rate 0.08 μM, synchrony of germination): −8.50 % vs control; T50 (% vs control) (NK Falkone corn seeds; rate 0.08 μM, time for half of seeds to germinate): −0.10 % vs control; Plateau (% vs control) (NK Falkone corn seeds; rate 0.4 μM): 0.90 % vs control; Slope (% vs control) (NK Falkone corn seeds; rate 0.4 μM): 0.20 % vs control; T50 (% vs control) (NK Falkone corn seeds; rate 0.4 μM): −1.80 % vs control; Plateau (% vs control) (NK Falkone corn seeds; rate 2 μM): −1.40 % vs control; Slope (% vs control) (NK Falkone corn seeds; rate 2 μM): −0.80 % vs control; T50 (% vs control) (NK Falkone corn seeds; rate 2 μM): −0.50 % vs control; Plateau (% vs control) (NK Falkone corn seeds; rate 10 μM): 1.50 % vs control; Slope (% vs control) (NK Falkone corn seeds; rate 10 μM): 7.40 % vs control; T50 (% vs control) (NK Falkone corn seeds; rate 10 μM): −2.40 % vs control
>720 | > 18.1 | > 17.8 | – | CC1=C(C)C(O/C=C2/C(=O)O[C@]3(C)CC[C@H]4C(C)(C)CCC[C@]4(C)[C@@H]23)N(c2ccccc2)C1=O (stereo partly shown) [Ib-1] | – | – | – | – | – | – | – | – | – | – | – | – | –
280 | > 17.6 | 19.4 | insufficient loss was observed | CC1=C(C)C(O/C=C2/C(=O)O[C@]3(C)CC[C@H]4C(C)(C)CCC[C@]4(C)[C@@H]23)OC1=O (stereo partly shown) [Ib-19] | 7.10 | 13.60 | −1.10 | −4.60 | 11.40 | −3.20 | 3.00 | 7.60 | 0.20 | 8.30 | 24.20 | −2.80 | soil stability compared to prior art compound AB01 ([1]; Stein soil): superior soil stability; hydrolytic stability compared to the prior art compound ([2]; pH9): superior hydrolytic stability
